# Laboratory results from patent US10961507B2, “Method for producing hepatic stem/precursor cells from mature hepatic cells using low-molecular-weight compound” (Cynity Co., Ltd., priority 2016, dated 2021).
# Test system: CYP1A in Hep-i(+) cells
# Assay: Determination of CYP1A activity and CYP1A1/CYP1A2 gene expression after 3-MC treatment
# Assay type: cell-based, rat
# Conditions: 5 μM for 4 days
# Method: In order to induce CYP1A activity, cells on Day 8 of hepatocyte induction were treated with 5 μM 3-methylcholanthrene (3-MC) (Sigma) for 4 days (the medium was exchanged on the second day). The control cells were treated only with DMSO as a solvent. Four days later, P450-G1o CYP1A1 Assay (Luciferin-CEE) was used to determine CYP1A activity. According to the manufacturer's instruction, this kit can detect CYP1A2 activity more efficiently than CYP1A1 activity. Following CYP1A activity, the DNA content of the cells was measured to normalize the CYP activity. In order to examine the responsiveness to 3-MC, fold changes in activity were calculated as [mean luminescence in the presence of 3-MC/mean luminescence in the absence of 3-MC] for 3 wells/condition in each experiment to determine an average value for five independent experiments. In two experiments, total RNA was isolated to assess the gene expression levels of CYP1A1 and CTP1A2.
compound,measurement,value
"Cc1ccc2cc3c(ccc4ccccc43)c3c2c1CC3 [3-MC, 3-methylcholanthrene]",CYP1A1 and CYP1A2 gene expressions in response to stimulation,efficiently induced
same,CYP1A activity in response to stimulation,efficiently induced
